Each structure is given as a SMILES string. Structures can show the parent of a compound that is named as a salt.

The target of the first assay is AMPK. The experiment in a line: AMPK activation, enzyme-linked immunosorbent assay. It counts as biochemical. Particulars: Table 8, compounds of Table 1. A digest of the protocol: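 AMPK activation by test compounds was measured by enzyme-linked immunosorbent assay.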
The term EC50 denotes the midpoint of the concentration-response curve. Take `O=C(NC1CCN(Cc2ccccn2)CC1)c1cc2ccc(OC3CCN(c4ccc(C(F)(F)F)cc4)CC3)cc2o1` [Compound 1-93, N-(1-(pyridin-2-ylmethyl)piperidin-4-yl)-6-(1-(4-(trifluoromethyl)phenyl)piperidin-4-yloxy)benzofuran-2-carboxamide]: the EC50 was in the range of 100 to 500 nM.

In the case of `O=C(NC1CCN(Cc2ccc(F)cc2)CC1)c1cc2ccc(OC3CCN(c4ccc(OC(F)(F)F)cc4)CC3)cc2o1` [Compound 1-94, N-(1-(4-fluorobenzyl)piperidin-4-yl)-6-(1-(4-(trifluoromethoxy)phenyl)piperidin-4-yloxy)benzofuran-2-carboxamide], the EC50 was less than 100 nM. Consider `O=C(NC1CCN(Cc2cccnc2)CC1)c1cc2ccc(OC3CCN(c4ccc(OC(F)(F)F)cc4)CC3)cc2o1` [Compound 1-95, N-(1-(pyridin-3-ylmethyl)piperidin-4-yl)-6-(1-(4-(trifluoromethoxy)phenyl)piperidin-4-yloxy)benzofuran-2-carboxamide], for which the concentration for a half-maximal effect (EC50) is less than 100 nM.

The molecule `O=C(NC1CCN(Cc2cccnc2)CC1)c1cc2ccc(OC3CCN(c4ccc(C(F)(F)F)cc4)CC3)cc2o1` [Compound 1-96, N-(1-(pyridin-3-ylmethyl)piperidin-4-yl)-6-(1-(4-(trifluoromethyl)phenyl)piperidin-4-yloxy)benzofuran-2-carboxamide] registered an EC50 of less than 100 nM. On the same count and under the same terms, next, `N#Cc1ccccc1CN1CCC(NC(=O)c2cc3ccc(OC4CCN(c5ccc(OC(F)(F)F)cc5)CC4)cc3o2)CC1` [Compound 1-97, N-(1-(2-cyanobenzyl)piperidin-4-yl)-6-(1-(4-(trifluoromethoxy)phenyl)piperidin-4-yloxy)benzofuran-2-carboxamide]: less than 100 nM; `N#Cc1ccccc1CN1CCC(NC(=O)c2cc3ccc(OC4CCN(c5ccc(C(F)(F)F)cc5)CC4)cc3o2)CC1` [Compound 1-98, N-(1-(2-cyanobenzyl)piperidin-4-yl)-6-(1-(4-(trifluoromethyl)phenyl)piperidin-4-yloxy)benzofuran-2-carboxamide]: less than 100 nM; `O=C(NC1CCN(Cc2ccc(C(F)(F)F)cc2)CC1)c1cc2ccc(OC3CCN(c4ccc(C(F)(F)F)cc4)CC3)cc2o1` [Compound 1-99, N-(1-(4-(trifluoromethyl)benzyl)piperidin-4-yl)-6-(1-(4-(trifluoromethyl)phenyl)piperidin-4-yloxy)benzofuran-2-carboxamide]: less than 100 nM.

In turn, `O=C(NC1CCN(Cc2ccc(C(F)(F)F)cc2)CC1)c1cc2cc(OC3CCN(c4ccc(C(F)(F)F)cc4)CC3)ccc2o1` [Compound 1-100, N-(1-(4-(trifluoromethyl)benzyl)piperidin-4-yl)-5-(1-(4-(trifluoromethyl)phenyl)piperidin-4-yloxy)benzofuran-2-carboxamide] gave an EC50 of less than 100 nM. On to `O=C(NC1CCN(Cc2cccnc2)CC1)c1cc2cc(OC3CCN(c4ccc(C(F)(F)F)cc4)CC3)ccc2o1` [Compound 1-101, N-(1-(pyridin-3-ylmethyl)piperidin-4-yl)-5-(1-(4-(trifluoromethyl)phenyl)piperidin-4-yloxy)benzofuran-2-carboxamide], for which the EC50 is less than 100 nM. `CN(C(=O)c1cc2cc(OC3CCN(c4ccc(C(F)(F)F)cc4)CC3)ccc2o1)C1CCN(C(=O)OC(C)(C)C)CC1` [Compound 1-102, tert-butyl 4-(N-methyl-5-(1-(4-(trifluoromethyl)phenyl)piperidin-4-yloxy)benzofuran-2-carboxamido) piperidine-1-carboxylate] displayed an EC50 of 1000 to 5000 nM. On the same count and under the same terms, next, `CN(C(=O)c1cc2cc(OC3CCN(c4ccc(C(F)(F)F)cc4)CC3)ccc2o1)C1CCNCC1` [Compound 1-103, N-methyl-N-(piperidin-4-yl)-5-(1-(4-(trifluoromethyl)phenyl)piperidin-4-yloxy)benzofuran-2-carboxamide]: 1000 to 5000 nM; `CN(C(=O)c1cc2cc(OC3CCN(c4ccc(C(F)(F)F)cc4)CC3)ccc2o1)C1CCN(Cc2ccncc2)CC1` [Compound 1-104, N-methyl-N-(1-(pyridin-4-ylmethyl)piperidin-4-yl)-5-(1-(4-(trifluoromethyl)phenyl)piperidin-4-yloxy)benzofuran-2-carboxamide]: 100 to 500 nM; `O=C(NC1CCN(S(=O)(=O)c2cccnc2)CC1)c1cc2ccc(OC3CCN(c4ccc(C(F)(F)F)cc4)CC3)cc2o1` [Compound 1-106, N-(1-(pyridin-3-ylsulfonyl)piperidin-4-yl)-6-(1-(4-(trifluoromethyl)phenyl)piperidin-4-yloxy)benzofuran-2-carboxamide]: 100 to 500 nM. The same measure, in the same setting: then `CN(C(=O)c1cc2cc(OC3CCN(c4ccc(C(F)(F)F)cc4)CC3)ccc2o1)C1CCN(Cc2ccc(C#N)cc2)CC1` [Compound 1-107, N-(1-(4-cyanobenzyl)piperidin-4-yl)-N-methyl-5-(1-(4-(trifluoromethyl)phenyl)piperidin-4-yloxy)benzofuran-2-carboxamide], with less than 100 nM; and `O=C(NC1CCN(S(=O)(=O)c2cccnc2)CC1)c1cc2ccc(OC3CCN(c4ccc(OC(F)(F)F)cc4)CC3)cc2o1` [Compound 1-108, N-(1-(pyridin-3-ylsulfonyl)piperidin-4-yl)-6-(1-(4-(trifluoromethoxy)phenyl)piperidin-4-yloxy)benzofuran-2-carboxamide], with 100 to 500 nM; and `CN(C(=O)c1cc2cc(OC3CCN(c4ccc(C(F)(F)F)cc4)CC3)ccc2o1)C1CCN(Cc2cccnc2)CC1` [Compound 1-109, N-methyl-N-(1-(pyridin-3-ylmethyl)piperidin-4-yl)-5-(1-(4-(trifluoromethyl)phenyl)piperidin-4-yloxy)benzofuran-2-carboxamide], with less than 100 nM. Take `CN(C(=O)c1cc2cc(OC3CCN(c4ccc(C(F)(F)F)cc4)CC3)ccc2o1)C1CCN(Cc2cccc(C#N)c2)CC1` [Compound 1-110, N-(1-(3-cyanobenzyl)piperidin-4-yl)-N-methyl-5-(1-(4-(trifluoromethyl)phenyl)piperidin-4-yloxy)benzofuran-2-carboxamide]: the EC50 is less than 100 nM. On the same count and under the same terms, then `CN(C(=O)c1cc2cc(OC3CCN(c4ccc(C(F)(F)F)cc4)CC3)ccc2o1)C1CCN(Cc2ccccc2C#N)CC1` [Compound 1-111, N-(1-(2-cyanobenzyl)piperidin-4-yl)-N-methyl-5-(1-(4-(trifluoromethyl)phenyl)piperidin-4-yloxy)benzofuran-2-carboxamide], with 100 to 500 nM. As to `O=C(NC1CCN(C(=O)c2ccncc2)CC1)c1cc2ccc(OC3CCN(c4ccc(C(F)(F)F)cc4)CC3)cc2o1` [Compound 1-112, N-(1-isonicotinoylpiperidin-4-yl)-6-(1-(4-(trifluoromethyl)phenyl)piperidin-4-yloxy)benzofuran-2-carboxamide], the EC50 was less than 100 nM. Take `CC(C)(C)OC(=O)N1CCC(NC(=O)c2cc3cc(OC4CCN(Cc5ccc(C#N)cc5)CC4)ccc3o2)CC1` [Compound 1-113, tert-butyl 4-(5-(1-(4-cyanobenzyl)piperidin-4-yloxy)benzofuran-2-carboxamido) piperidine-1-carboxylate]: the EC50 is 100 to 500 nM. On the same count and under the same terms, then `N#Cc1ccc(CN2CCC(Oc3ccc4oc(C(=O)NC5CCN(Cc6ccccc6)CC5)cc4c3)CC2)cc1` [Compound 1-114, N-(1-benzylpiperidin-4-yl)-5-(1-(4-cyanobenzyl)piperidin-4-yloxy)benzofuran-2-carboxamide], with 100 to 500 nM. Same read-out and setting: then `O=C(NC1CCN(C(=O)c2ccncc2)CC1)c1cc2cc(OC3CCN(c4ccc(C(F)(F)F)cc4)CC3)ccc2o1` [Compound 1-115, N-(1-isonicotinoylpiperidin-4-yl)-5-(1-(4-(trifluoromethyl)phenyl)piperidin-4-yloxy)benzofuran-2-carboxamide], with less than 100 nM; and `NC(=O)c1ccc(CN2CCC(Oc3ccc4oc(C(=O)NC5CCN(Cc6ccccc6)CC5)cc4c3)CC2)cc1` [Compound 1-116, N-(1-benzylpiperidin-4-yl)-5-(1-(4-carbamoylbenzyl)piperidin-4-yloxy)benzofuran-2-carboxamide], with 100 to 500 nM; and `CN(C(=O)c1cc2cc(OC3CCN(c4ccc(C(F)(F)F)cc4)CC3)ccc2o1)C1CCN(Cc2ccccn2)CC1` [Compound 1-117, N-methyl-N-(1-(pyridin-2-ylmethyl)piperidin-4-yl)-5-(1-(4-(trifluoromethyl)phenyl)piperidin-4-yloxy)benzofuran-2-carboxamide], with less than 100 nM.

Molecule `CN(C(=O)c1cc2cc(OC3CCN(c4ccc(C(F)(F)F)cc4)CC3)ccc2o1)C1CCN(C(=O)c2ccncc2)CC1` [Compound 1-118, N-(1-isonicotinoylpiperidin-4-yl)-N-methyl-5-(1-(4-(trifluoromethyl)phenyl)piperidin-4-yloxy)benzofuran-2-carboxamide] displayed an EC50 of 100 to 500 nM. The same measure, in the same setting: then `CN(C(=O)c1cc2cc(OC3CCN(c4ccc(C(F)(F)F)cc4)CC3)ccc2o1)C1CCN(Cc2ccc(C(F)(F)F)cc2)CC1` [Compound 1-119, N-methyl-N-(1-(4-(trifluoromethyl)benzyl)piperidin-4-yl)-5-(1-(4-(trifluoromethyl)phenyl)piperidin-4-yloxy)benzofuran-2-carboxamide], with less than 100 nM; and `CC(C)(C)OC(=O)N1CC[C@@H](NC(=O)c2cc3cc(OC4CCN(c5ccc(C(F)(F)F)cc5)CC4)ccc3o2)C1` [Compound 1-120, (R)-tert-butyl 3-(5-(1-(4-(trifluoromethyl)phenyl)piperidin-4-yloxy)benzofuran-2-carboxamido) pyrrolidine-1-carboxylate], with 1000 to 5000 nM; and `O=C(N[C@@H]1CCNC1)c1cc2cc(OC3CCN(c4ccc(C(F)(F)F)cc4)CC3)ccc2o1` [Compound 1-121, (R)-N-(pyrrolidin-3-yl)-5-(1-(4-(trifluoromethyl)phenyl)piperidin-4-yloxy)benzofuran-2-carboxamide], with greater than 10000 nM.

Staying with this assay, now noted: Table 8, compounds of Table 1; formate salt.
For `O=C(NC1CCN(Cc2ccncc2)CC1)c1cc2cc(OC3CCN(c4ccc(C(F)(F)F)cc4)CC3)ccc2o1` [Compound 1-105, N-(1-(pyridin-4-ylmethyl)piperidin-4-yl)-5-(1-(4-(trifluoromethyl)phenyl)piperidin-4-yloxy)benzofuran-2-carboxamide, formate salt], the EC50 is less than 100 nM.
